Data on 44 substances can be found in patent publication US11214803B2, “Modulators of YAP1 expression” (Ionis Pharmaceuticals, Inc., priority 2019, dated 2022).

Strand notation (5' to 3'): a small letter for the sugar, then the base; units joined by * are phosphorothioate-linked, units joined directly phosphodiester-linked; [ ] holds rarer units or linkages, { } end groups; capitals alone tell only the bases. k = constrained ethyl (cEt); [5mC] = 5-methylcytosine; d = 2'-deoxy (DNA)

The subject of the first data set is Yap1 mRNA. The experiment in a line: Antisense inhibition of human Yap1 in A-431 cells by cEt gapmers, single dose (Example 1, RTS4814). The format is cell-based. The settings on record: A-431 cells, 5,000 cells per well, free uptake, 2,000 nM modified oligonucleotide, approx. 48 hours, RTS4814, normalized to RIBOGREEN; Table 3. As for the experimental part: Modified oligonucleotides were designed to target a Yap1 nucleic acid and were tested for their effect on Yap1 mRNA level in vitro. The modified oligonucleotides were tested in a series of experiments that had similar culture conditions. Cultured A-431 cells at a density of 5,000 cells per well were treated using free uptake with 2,000 nM of modified oligonucleotide. After a treatment period of approximately 48 hours, RNA was isolated from the cells and Yap1 mRNA levels were measured by quantitative real-time RTPCR. Human primer probe set RTS4814 (forward sequence […], designated herein as SEQ ID NO.: 11; reverse sequence […], designated herein as SEQ ID NO.: 12; probe sequence […], designated herein as SEQ ID NO.: 13) was used to measure mRNA levels. Yap1 mRNA levels were normalized to total RNA content, as measured by RIBOGREEN®. Results are presented in the tables below as percent control of the amount of Yap1 mRNA relative to untreated control cells (% UTC). The modified oligonucleotides with percent control values marked with an asterisk (*) target the amplicon region of the primer probe set. Additional assays may be used to measure the potency and efficacy of the modified oligonucleotides targeting the amplicon region.
The newly designed modified oligonucleotides in the Tables below were designed as 3-10-3 cEt gapmers. The gapmers are 16 nucleosides in length, wherein the central gap segment comprises of ten 2′-deoxynucleosides and is flanked by wing segments on the 5′ direction and the 3′ direction comprising three nucleosides each. Each nucleoside in the 5′ wing segment and each nucleoside in the 3′ wing segment has a cEt sugar modification. The internucleoside linkages throughout each gapmer are phosphorothioate (P═S) linkages. All cytosine residues throughout each gapmer are 5-methylcytosines.
“Start site” indicates the 5′-most nucleoside to which the gapmer is targeted in the human gene sequence. “Stop site” indicates the 3′-most nucleoside to which the gapmer is targeted human gene sequence. […] Activity of the modified oligonucleotide may be defined in a different experiment.
In the case of “715531 (kA*k[5mC]*kA*dA*d[5mC]*d[5mC]*dT*dG*dG*dT*dT*dT*dG*kT*kT*kT; antisense) [Compound 715531]”, the “YAP1 (% UTC)” value is listed as 94 % UTC. Still for that read-out and setting: the result for “715624 (antisense kT*kG*k[5mC]*d[5mC]*dT*dA*dA*dG*dA*dG*dT*dA*dA*kA*kA*kA) [Compound 715624]” reads 123 % UTC; that for “715612 (antisense kT*kA*k[5mC]*dT*dT*dT*dA*dA*dG*d[5mC]*d[5mC]*dA*d[5mC]*kA*kT*kG) [Compound 715612]”, 77 % UTC. Still for that read-out and setting: the result for “715432 (k[5mC]*kT*k[5mC]*d[5mC]*dA*dT*d[5mC]*d[5mC]*dT*dG*dA*dG*dT*k[5mC]*kA*kT; antisense) [Compound 715432]” reads 65 % UTC; that for “715468 (antisense kG*k[5mC]*kT*dT*dG*dG*dT*dG*dG*d[5mC]*dA*dG*d[5mC]*k[5mC]*kA*kA) [Compound 715468]”, 90 % UTC; that for “715591 (k[5mC]*kT*kT*dT*dG*dG*d[5mC]*dA*dG*dA*dG*dA*dT*kA*kA*kA; antisense) [Compound 715591]”, 41 % UTC.

In the case of “715585 (kA*kA*kG*dG*dT*d[5mC]*dT*dG*dG*dA*dA*d[5mC]*dA*kG*kA*kT; antisense) [Compound 715585]”, the “YAP1 (% UTC)” value was determined as 73 % UTC.

Regarding “715567 (kG*kG*kT*dA*dG*dG*dA*dT*dA*dA*dA*dT*dG*kA*kA*kT; antisense) [Compound 715567]”, the “YAP1 (% UTC)” value is recorded as 99 % UTC. On the same count and under the same terms, the result for “715471 (antisense kT*kA*kT*d[5mC]*dT*dA*dG*d[5mC]*dT*dT*dG*dG*dT*kG*kG*k[5mC]) [Compound 715471]” reads 36 % UTC; that for “715465 (antisense kG*kT*k[5mC]*d[5mC]*dA*d[5mC]*dA*dT*dT*dT*dG*dT*d[5mC]*k[5mC]*k[5mC]*kA) [Compound 715465]”, 91 % UTC; that for “715633 (kG*kT*kG*dA*dT*dA*dG*dG*dT*dG*d[5mC]*d[5mC]*dA*k[5mC]*kT*kA; antisense) [Compound 715633]”, 78 % UTC. Same read-out and setting: the result for “715501 (antisense kA*kA*kA*dA*dG*d[5mC]*d[5mC]*dT*dT*dA*dG*dA*dG*kT*k[5mC]*kA) [Compound 715501]” reads 28 % UTC; that for “715498 (antisense kT*kG*kA*dA*d[5mC]*d[5mC]*d[5mC]*dT*dT*dG*dA*dA*dA*kA*kT*kA) [Compound 715498]”, 91 % UTC. Same read-out and setting: the result for “715570 (kG*k[5mC]*k[5mC]*dA*dA*dA*dG*dG*dT*dA*dG*dG*dA*kT*kA*kA; antisense) [Compound 715570]” reads 79 % UTC; that for “715489 (antisense kA*kA*k[5mC]*dT*dA*dT*dT*dA*d[5mC]*dT*dT*d[5mC]*dA*kT*kA*kG) [Compound 715489]”, 90 % UTC.

Staying with this data set, now noted: Table 1; A-431 cells, free uptake, 2,000 nM, approximately 48 hours, RTS4814; Yap1 mRNA relative to untreated control cells.
Take “715547 (kG*kT*kT*dG*dA*d[5mC]*d[5mC]*dA*dA*d[5mC]*dT*dA*d[5mC]*kT*kT*kG; antisense) [Compound 715547]”: the “YAP1 (% UTC)” value is reported as 98 % UTC. On to “715493 (antisense kG*kT*kG*d[5mC]*dT*dA*dG*d[5mC]*dT*dG*dG*dT*dG*k[5mC]*k[5mC]*kA) [Compound 715493]”, for which the “YAP1 (% UTC)” value is 62 % UTC. Take “715418 (kA*kG*kT*dG*dT*d[5mC]*d[5mC]*d[5mC]*dA*dG*dG*dA*dG*kA*kA*kA; antisense) [Compound 715418]”: the “YAP1 (% UTC)” value was 126 % UTC. Still for that read-out and setting: the result for “715562 (k[5mC]*kA*k[5mC]*dA*d[5mC]*dA*dA*d[5mC]*dT*d[5mC]*dA*dG*dA*k[5mC]*kA*kG; antisense) [Compound 715562]” reads 77 % UTC; that for “715574 (kT*kA*k[5mC]*d[5mC]*dA*dA*dA*dA*d[5mC]*dG*dA*dG*dG*kG*kT*k[5mC]; antisense) [Compound 715574]”, 118 % UTC; that for “715478 (antisense kA*k[5mC]*k[5mC]*dA*dT*dT*dA*dT*dT*dA*d[5mC]*dT*d[5mC]*k[5mC]*kT*kG) [Compound 715478]”, 7 % UTC. Still for that read-out and setting: as for “715424 (kT*kG*k[5mC]*d[5mC]*dA*dT*dG*dT*dT*dG*dT*dT*dG*kT*k[5mC]*kT; antisense) [Compound 715424]”, the figure is 58 % UTC.

Consider “715430 (kA*kT*k[5mC]*d[5mC]*dT*dG*dA*dG*dT*d[5mC]*dA*dT*dG*kG*k[5mC]*kT; antisense) [Compound 715430]”, for which the “YAP1 (% UTC)” value is recorded as 118 % UTC. Same read-out and setting: as for “715553 (kA*kG*kA*dA*dA*dT*dA*dG*dG*dA*dA*dG*dT*kT*kG*kT; antisense) [Compound 715553]”, the figure is 90 % UTC. Turning to “715442 (antisense k[5mC]*kA*k[5mC]*dT*dG*dG*dA*dG*d[5mC]*dA*d[5mC]*dT*d[5mC]*kT*kG*kA) [Compound 715442]”, the “YAP1 (% UTC)” value turned out to be 64 % UTC. In the case of “715433 (antisense kT*kG*kT*dT*d[5mC]*dT*dT*dA*dT*dG*dG*dT*dT*kT*kA*kT) [Compound 715433]”, the “YAP1 (% UTC)” value worked out at 36 % UTC. On the same count and under the same terms, the result for “715406 (k[5mC]*kT*kT*dG*dA*dA*dG*dA*dA*dG*dG*dA*dG*kT*k[5mC]*kG; antisense) [Compound 715406]” reads 58 % UTC; that for “715529 (kT*kG*kA*dA*dA*d[5mC]*d[5mC]*dT*dG*dA*dT*d[5mC]*d[5mC]*kT*kT*kT; antisense) [Compound 715529]”, 148 % UTC.

For the substance “715445 (antisense k[5mC]*kA*kT*d[5mC]*d[5mC]*dT*dG*d[5mC]*dT*d[5mC]*d[5mC]*dA*dG*kT*kG*kT) [Compound 715445]”, the “YAP1 (% UTC)” value is 87 % UTC. Same read-out and setting: as for “715532 (kT*kA*kA*d[5mC]*dA*dA*d[5mC]*d[5mC]*dT*dG*dG*dT*dT*kT*kG*kT; antisense) [Compound 715532]”, the figure is 91 % UTC; as for “715613 (antisense kA*kT*kT*dA*d[5mC]*dT*dT*dT*dA*dA*dG*d[5mC]*d[5mC]*kA*k[5mC]*kA) [Compound 715613]”, 85 % UTC.

The data set is the same for the next values; noted with them: Table 2; A-431 cells, free uptake, 2,000 nM, approximately 48 hours, RTS4814; Yap1 mRNA relative to untreated control cells.
With “715596 (antisense kG*kT*kT*d[5mC]*dA*dT*dG*dG*d[5mC]*dT*dG*dA*dA*kA*kT*kG) [Compound 715596]”, the “YAP1 (% UTC)” value is 104 % UTC. With “715527 (kT*k[5mC]*kA*d[5mC]*dT*dT*dA*d[5mC]*dT*dT*dT*dA*dA*kG*kA*kA; antisense) [Compound 715527]”, the “YAP1 (% UTC)” value is given as 111 % UTC.

For “715437 (antisense k[5mC]*kA*kT*dG*dG*d[5mC]*dA*dA*dA*dA*d[5mC]*dG*dA*kG*kG*kG) [Compound 715437]”, the “YAP1 (% UTC)” value was determined as 89 % UTC.

As to “715476 (antisense kA*kA*kA*dG*d[5mC]*dT*dT*dT*d[5mC]*dT*dT*dT*dA*kT*k[5mC]*kT) [Compound 715476]”, the “YAP1 (% UTC)” value worked out at 84 % UTC. The same measure, in the same setting: the result for “715548 (kA*kG*kT*dT*dG*dT*dT*dG*dA*d[5mC]*d[5mC]*dA*dA*k[5mC]*kT*kA; antisense) [Compound 715548]” reads 117 % UTC; that for “715530 (kA*kA*k[5mC]*d[5mC]*dT*dG*dG*dT*dT*dT*dG*dT*dT*kT*k[5mC]*k[5mC]; antisense) [Compound 715530]”, 61 % UTC. The same measure, in the same setting: the result for “715563 (kA*kG*k[5mC]*dA*d[5mC]*dA*d[5mC]*dA*dA*d[5mC]*dT*d[5mC]*dA*kG*kA*k[5mC]; antisense) [Compound 715563]” reads 86 % UTC. Still for that read-out and setting: the result for “715536 (kG*kG*k[5mC]*dT*dA*dT*dT*dA*dA*dG*d[5mC]*dT*dG*kT*kT*kT; antisense) [Compound 715536]” reads 137 % UTC.

“715434 (antisense kT*k[5mC]*kT*dT*dG*dT*dT*d[5mC]*dT*dT*dA*dT*dG*kG*kT*kT) [Compound 715434]”: the “YAP1 (% UTC)” value amounted to 31 % UTC.

For the substance “715446 (antisense kA*kT*kT*d[5mC]*d[5mC]*dT*dG*dA*dG*dA*d[5mC]*dA*dT*k[5mC]*k[5mC]*k[5mC]) [Compound 715446]”, the “YAP1 (% UTC)” value was determined as 81 % UTC. The same measure, in the same setting: as for “715614 (antisense kA*kA*kA*dT*dT*dA*d[5mC]*dT*dT*dT*dA*dA*dG*k[5mC]*k[5mC]*kA) [Compound 715614]”, the figure is 110 % UTC; as for “715422 (kA*kT*kG*dT*dT*dG*dT*dT*dG*dT*d[5mC]*dT*dG*kA*kT*k[5mC]; antisense) [Compound 715422]”, 57 % UTC. The same measure, in the same setting: as for “715416 (k[5mC]*kT*k[5mC]*dG*dA*dA*d[5mC]*dA*dT*dG*d[5mC]*dT*dG*kT*kG*kG; antisense) [Compound 715416]”, the figure is 53 % UTC.
